Among the data in patent US20260176289A1, “SMALL MOLECULE INHIBITORS OF KRAS PROTEINS” (Merck Sharp & Dohme LLC, priority 2022, published 2026) are IC50 values, retold here.

Each structure is given as a SMILES string. Like-named read-outs stand apart in the source and are kept apart here.

Experiment [1] addresses KRAS-WT (Homo sapiens, UniProt P01116). As to the kind of experiment: SOS-catalyzed nucleotide exchange assay (Procedure A, TR-FRET), KRAS-WT. The note with it: nucleotide exchange, read-out: KRAS WT GNE IC50. Type of experiment: biochemical. The essentials:
(§1)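 Biotinylated RAS (KRAS-G12C carries C51S/C80L/C118S; others WT background) preloaded with Bodipy-GDP plus Tb-streptavidin, preincubated with compound 60 min at RT, then human SOS and 3 mM GTP added. Final RAS/SOS: G12C 3 nM/40 nM, 60 min; WT 1 nM/40 nM, 60 min; G12V 1.25 nM/160 nM, 90 min; NRAS 1.25 nM/40 nM, 60 min. TR-FRET 520/495 ratio normalized to DMSO and saturating inhibitor; 10-point curves fit four-parameter logistic.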
Background: Time-resolved FRET reads energy transfer from a long-lived donor to a nearby acceptor.

Experiment [2] concerns the target KRAS-G12C (C51S/C80L/C118S) (Homo sapiens, UniProt P01116, C118S/C51S/C80L/G12C). The experiment is described as follows: SOS-catalyzed nucleotide exchange assay (Procedure A, TR-FRET), KRAS-G12C. Type of experiment: biochemical. The note with it: nucleotide exchange, Procedure A; read-out: KRAS G12C GNE IC50. The essentials:
as §1

For experiment [3], the target named is KRAS-G12D (Homo sapiens, UniProt P01116, G12D). The experiment is described as follows: SOS-catalyzed nucleotide exchange assay (Procedure A, TR-FRET), KRAS-G12D. Type of experiment: biochemical. The note with it: nucleotide exchange, read-out: KRAS G12D GNE IC50. The essentials: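 Signal ratio (520/495 nm, excitation 340 nm) reports Bodipy-GDP retention on biotinylated RAS after SOS-catalyzed exchange with 3 mM GTP. SOS was 40 nM, except 160 nM for G12V. Room-temperature exchange lasted 60 min (90 min for G12V), following a 60 min compound preincubation.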
Sequence of KRAS-G12D (P01116 with tags, fused parts or gaps isoform P01116-2 G12D): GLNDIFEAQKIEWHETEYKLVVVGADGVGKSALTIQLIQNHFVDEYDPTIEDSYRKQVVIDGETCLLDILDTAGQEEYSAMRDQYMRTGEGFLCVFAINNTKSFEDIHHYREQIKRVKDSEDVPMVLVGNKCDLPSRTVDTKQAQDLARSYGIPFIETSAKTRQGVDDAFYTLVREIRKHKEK

In experiment [4] the target is KRAS-G12V (Homo sapiens, UniProt P01116, G12V). The experiment is described as follows: SOS-catalyzed nucleotide exchange assay (Procedure A, TR-FRET), KRAS-G12V. Type of experiment: biochemical. The note with it: nucleotide exchange, read-out: KRAS G12V GNE IC50. The method in brief: as §1
Sequence of KRAS-G12V (P01116 with tags, fused parts or gaps isoform P01116-2 G12V): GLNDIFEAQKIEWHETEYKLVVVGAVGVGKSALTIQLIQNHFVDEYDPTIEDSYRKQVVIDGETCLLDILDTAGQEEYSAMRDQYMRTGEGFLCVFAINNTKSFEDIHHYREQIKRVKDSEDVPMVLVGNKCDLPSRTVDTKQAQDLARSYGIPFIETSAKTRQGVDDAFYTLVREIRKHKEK
Experiment [5] addresses KRAS-G13D (Homo sapiens, UniProt P01116, G13D). The experiment is described as follows: SOS-catalyzed nucleotide exchange assay (Procedure A, TR-FRET), KRAS-G13D. Type of experiment: biochemical. The note with it: nucleotide exchange, Procedure A; read-out: KRAS G13D GNE IC50.
For experiment [6], the system named is MKN-1 cells. As to the kind of experiment: Cellular phospho-ERK assay, MKN-1 cells (amplified wild-type KRAS). Type of experiment: cell-based. The note with it: Homo sapiens, read-out: MKN1 pERK IC50. The essentials: (§2)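 p-ERK/total ERK ratio, measured by AlphaLISA SureFire Ultra multiplex in lysates, was fitted to a 4-parameter logistic model for IC50. Compound exposure was 2 h at 37° C, 5% CO2, 10-point 1:3 dilutions from 30 μM final, on cells plated the previous night.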

The test system of experiment [7] is AsPC-1 cells. The experiment is described as follows: Cellular phospho-ERK assay, AsPC-1 cells (homozygous KRAS-G12D). The note with it: Homo sapiens, ASPC1, 2 h, read-out: AsPC1 pERK IC50. Type of experiment: cell-based. The essentials:
as §2

Experiment [8] concerns SW620 cells. The experiment is described as follows: Cellular phospho-ERK assay, SW620 cells (homozygous KRAS-G12V). Type of experiment: cell-based. The note with it: Homo sapiens, read-out: SW620 pERK IC50. The method in brief:
as §2

Experiment [9] deals with PANC08.13 cells. The experiment is described as follows: Cellular phospho-ERK assay, PANC08.13 cells (homozygous KRAS-G12D). The note with it: Homo sapiens, PANC-08-13, KRAS-G12D, 2 hours, read-out: PANC-08.13 pERK IC50. Type of experiment: cell-based. The protocol: Procedure for Cellular Phospho-ERK Assay in KRAS Wild Type and Mutant (G12D, G12V) Cell Lines
MKN-1 cells (JCRB JCRB0252) containing amplified wild-type KRAS, were cultured in growth medium that contains RPMI 1640-GlutaMAX™-I (ThermoFisher Scientific 61870) containing 10% heat inactivated fetal bovine serum (ThermoFisher Scientific 10091148), 1 mM sodium pyruvate and 10 mM HEPES. PANC08.13 cells (ATCC® CRL-2551™), containing homozygous KRAS-G12D activating mutation, were cultured in growth medium made of RPMI1640-GlutaMAX™-I (ThermoFisher Scientific 61870) containing 15% heat inactivated fetal bovine serum (ThermoFisher Scientific 10091148)). AsPC-1 cells (ATCC® CRL-1682™), containing homozygous KRAS-G12D activating mutation, were cultured in T150 flask in growth medium (RPMI medium 1640-GlutaMAX™-I (ThermoFisher Scientific 61870) containing 10% fetal bovine serum (ThermoFisher Scientific 10091148)). SW620 cells (ATCC® […]), containing homozygous KRAS-G12V activating mutation, were cultured in growth medium that contains RPMI 1640-GlutaMAX™-I (ThermoFisher Scientific 61870) containing 10% heat inactivated fetal bovine serum (ThermoFisher Scientific 10091148).
Cells for the assay were harvested in growth medium after TrypLE (ThermoFisher scientific 12604021) digestion and were seeded in a 384-well collagen coated cell culture plate (Corning 356702) at a density of 10,000-15,000 cells/20 μL/well, and incubated at 37° C., 5% CO2 overnight. The compound (with 10 mM stock concentration) dose-response titrations were prepared [30 μM final ERK detection assay concentration and 1:3 dilutions, 10-point dose response] and appropriate amounts (270 nL) of test compounds were dispensed in a 384-well intermediate plate using an Echo 550 liquid handler. 30 μL/well of RPMI medium 1640-GlutaMAX™—I was added to the intermediate plate and the contents of the intermediate plate (10 μL/well) were then transferred to the 384-well collagen coated cell culture plate, which was incubated at 37° C., 5% CO2 for 2 hours. After removal of medium from the collagen coated cell culture plate, cells were lysed in lysis buffer from Alpha SureFire® Ultra™ Multiplex p-ERK and total ERK assay kit (PerkinElmer MPSU-PTERK) containing Halt™ Protease and Phosphatase inhibitor cocktail (ThermoFisher Scientific 78446) at room temperature with constant shaking at 300 rpm for 30 minutes. The cell lysates were then transferred to an OptiPlate-384 plate (PerkinElmer 6005620), and the phosphorylation of ERK (p-ERK) and total ERK levels were detected by Alpha SureFire® Ultra™ Multiplex p-EEK kit and total ERK assay kit (PerkinElmer MPSU-PTERK) following the manufacturer's protocol. Assay plates were read on a En Vision Multimode Plate Reader (PerkinElmer), and the ratio of p-ERK vs. total ERK in each well was used as the final readout. Dose response curves were analyzed using a 4-parameter logistic model to calculate IC50 values using Spotfire software.

The mark [10] stands for this setting: SW-620, 2 hours compound incubation.
[11] abbreviates: amplified wild-type KRAS, 2 hours.

Sequence of KRAS-WT (P01116 with tags, fused parts or gaps isoform P01116-2): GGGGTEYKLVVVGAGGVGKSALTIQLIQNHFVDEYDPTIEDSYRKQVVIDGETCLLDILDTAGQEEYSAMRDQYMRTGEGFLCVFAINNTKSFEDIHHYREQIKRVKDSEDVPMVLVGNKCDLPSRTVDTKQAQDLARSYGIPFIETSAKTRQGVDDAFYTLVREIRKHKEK
Sequence of KRAS-G13D (P01116 with tags, fused parts or gaps isoform P01116-2 G13D): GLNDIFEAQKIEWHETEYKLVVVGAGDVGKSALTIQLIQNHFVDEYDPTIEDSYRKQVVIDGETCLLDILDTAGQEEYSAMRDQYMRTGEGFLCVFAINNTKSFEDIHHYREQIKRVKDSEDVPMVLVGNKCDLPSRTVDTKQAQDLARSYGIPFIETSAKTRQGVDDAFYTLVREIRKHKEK
Sequence of KRAS-G12C (C51S/C80L/C118S) (P01116 with tags, fused parts or gaps isoform P01116-2 G12C/C51S/C80L/C118S): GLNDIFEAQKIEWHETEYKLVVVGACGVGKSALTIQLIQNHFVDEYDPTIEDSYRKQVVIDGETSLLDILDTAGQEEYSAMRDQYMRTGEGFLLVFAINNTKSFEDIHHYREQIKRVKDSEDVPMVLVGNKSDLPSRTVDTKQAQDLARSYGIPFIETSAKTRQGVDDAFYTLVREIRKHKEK

For the compound `Cc1cc2[nH]ncc2c(-c2nccc3c2sc2nc(OC[C@@]45CCCN4C[C@H](F)C5)nc(N4CCOC[C@@](C)(O)C4)c23)c1C1CC1` [Ex-141, (6S)-4-(8-(5-cyclo-propyl-6-methyl-1H-indazol-4-yl)-2-(((2R,7aS)-2-fluoro-tetrahydro-1H-pyr-rolizin-7a(5H)-yl)-methoxy)pyrido [4′,3′:4,5]thieno[2,3-d]pyrimidin-4-yl)-6-methyl-1,4-oxaze-pan-6-ol], the IC50 (usually the concentration that inhibits the measured activity by half) in experiment [1] was found to be 0.0181 µM; in experiment [2] it was 0.0877 µM; in [3] it was 0.0075 µM; in experiment [4], 0.0165 µM; in experiment [5] it was 0.0144 µM; in experiment [6] (2 hours compound incubation) it was 0.0531 µM. Besides, the values for the IC50 in experiment [7] (2 hours compound incubation) and in experiment [8] (setting [10]) were 0.0381 µM and 0.131 µM, respectively.
In the case of `C[C@@]1(O)COCCN(c2nc(OC[C@@]34CCCN3C[C@H](F)C4)nc3sc4c(-c5c(C6(F)CC6)c(Cl)cc6[nH]ncc56)nccc4c23)C1` [Ex-52, (6S)-4-(8-(6-chloro-5-(1-fluorocyclopropyl)-1H-indazol-4-yl)-2-(((2R,7aS)-2-fluorotetrahydro-1H-pyrrolizin-7a(5H)-yl)methoxy)pyrido[4′,3′-4,5]thi-eno[2,3-d]pyrimidin-4-yl)-6-methyl-1,4-oxazepan-6-ol], the IC50 in [1] turned out to be 0.0119 µM; in experiment [2], 0.0301 µM; in experiment [3], 0.00405 µM; in [4], 0.0129 µM; in [5], 0.00902 µM; in [6] (setting [11]), 0.0486 µM. In addition, the IC50 came out at 0.0687 µM in experiment [7] (KRAS-G12D, 2 hours) and 0.0373 µM in experiment [8] (SW-620, KRAS-G12V, 2 hours).
With `CC(C)c1c(Cl)cc2[nH]ncc2c1-c1nccc2c1sc1nc(OC[C@@]34CCCN3C[C@H](F)C4)nc(N3CCOC[C@@](C)(O)C3)c12` [Ex-145, (6S)-4-(8-(6-chloro-5-isopropyl-1H-ind-azol-4-yl)-2-(((2R, 7aS)-2-fluorotetra-hydro-1H-pyrrol-izin-7a(5H)-yl)meth-oxy)pyrido[4′,3′:4,5]thieno[2,3-d]pyr-imidin-4-yl)-6-meth-yl-1,4-oxazepan-6-ol], the IC50 in [1] is 0.0589 µM; in [2] it was 0.0443 µM; in [3], 0.0343 µM; in experiment [4], 0.0732 µM; in [5], 0.0278 µM; in experiment [6] (2 hours compound incubation) it was 0.155 µM. Further, the IC50 in experiment [7] (2 hours compound incubation) stood at 0.119 µM; in [8] (setting [10]), 0.12 µM.
Consider `Cc1cc2[nH]ncc2c(-c2nccc3c2sc2nc(OC[C@@]45CCCN4C[C@H](F)C5)nc(N4CCOC[C@@](C)(O)C4)c23)c1C12CC(C1)C2` [Ex-43, (6S)-4-(8-(5-(bicyclo[1.1.1]pentan-1 yl)-6-methy1-1H-indazol-4-yl)-2-(((2R,7aS)-2-fluorotetrahydro-1H-pyrrolizin-7a(5H)-yl)methoxy)pyrido[4′,3′:4,5]thi-eno[2,3-d]pyrimidin-4-yl)-6-methyl-1,4-oxazepan-6-ol], for which the IC50 amounted to 0.0444 µM in experiment [1]; 0.0243 µM in [2]; 0.0139 µM in experiment [3]; 0.0268 µM in [4]; 0.0175 µM in experiment [5]; 0.145 µM in [6] (setting [11]). Moreover, the IC50 amounted to 0.13 µM in [7] (KRAS-G12D, 2 hours) and 0.062 µM in [8] (SW-620, KRAS-G12V, 2 hours).
Consider `C=C1CN2C[C@H](F)C[C@@]2(COc2nc(N3CCOC[C@@](C)(O)C3)c3c(n2)sc2c(-c4c(C5CC5)c(Cl)cc5[nH]ncc45)nccc23)C1` [Ex-223, (6S)-4-(8-(6-chloro-5-cyclopropyl-1H-indazol-4-yl)-2-(((2R,7aR)-2-fluoro-6-methylenetetra-hydro-1H-pyrrol-izin-7a(5H)-yl)methoxy)pyrido [4′,3′:4,5]thieno[2,3-d]pyrimidin-4-yl)-6-methyl-1,4-oxaze-pan-6-ol], for which the IC50 came out at 0.0245 µM in [1]; 0.111 µM in [2]; 0.00927 µM in experiment [3]; 0.0341 µM in experiment [4]; 0.0376 µM in experiment [5]; 0.0429 µM in [6] (2 hours compound incubation). Further, the IC50 worked out at 0.0638 µM in experiment [7] (2 hours compound incubation) and 0.0236 µM in [8] (setting [10]).
Turning to `C=C(C)c1c(C)cc2[nH]ncc2c1-c1nncc2c1sc1nc(OC[C@@]34CCCN3C[C@H](F)C4)nc(N3CCOC[C@@](C)(O)C3)c12` [Ex-278], the half-maximal inhibitory concentration (IC50) in [1] came to 0.046 µM; in experiment [2], 0.0749 µM; in experiment [3], 0.0146 µM; in experiment [4], 0.0304 µM; in [5], 0.0203 µM; in [6] (setting [11]) it was 0.0982 µM. The IC50 was determined as 0.364 µM in experiment [7] (KRAS-G12D, 2 hours) and 0.103 µM in experiment [8] (SW-620, KRAS-G12V, 2 hours).
In the case of `C=C(C)c1c(C(F)(F)F)cc2[nH]ncc2c1-c1nccc2c1sc1nc(OCC34CCCN3CC(F)C4)nc(N3CCOCC(C)(O)C3)c12` [Ex-60, (6S)-4-(2-(((2R,7aS)-2-fluorotetrahydro-1H-pyrrolizin-7a(5H)-yl)methoxy)-8-(5-(prop-1-en-2-yl)-6-(trifluoromethyl)-1H-indazol-4-yl)pyrido[4′,3′:4,5]thieno [2,3-d]pyrimidin-4-y])-6-methyl-1,4-oxazepan-6-ol], the IC50 in experiment [1] came to 0.029 µM; in experiment [2], 0.0224 µM; in [3] it was 0.00946 µM; in [4] it was 0.0186 µM; in experiment [5] it was 0.0158 µM; in experiment [6] (setting [11]) it was 0.0445 µM. For the same compound, the IC50 was 0.0995 µM in experiment [7] (KRAS-G12D, 2 hours) and 0.0419 µM in [8] (SW-620, KRAS-G12V, 2 hours).
On to `Cc1cc2[nH]ncc2c(-c2nccc3c4c(N5CCCC6(CC(=O)N6)C5)nc(OC[C@@]56CCCN5C[C@H](F)C6)nc4n(C)c23)c1C(F)(F)F` (single isomer, unassigned) [Ex-21], for which the IC50 is 0.455 µM in [1]; 0.0253 µM in experiment [2]; 0.059 µM in [3]; 0.0344 µM in [4]; 1.86 µM in experiment [9]; 3.26 µM in [7] (KRAS-G12D, 2 hours).
